Assay results from the Kinase Knowledgebase extract (Sharma et al. 2016).
Values joined by “and” are separate entries in the source; they are usually repeats but may differ in a detail not shown here. Equal values may be shown once.

target: CDK2 (human) (UniProt P24941); assay: Enzyme Assay; details: concentration not given here

| Structure (SMILES) | inhibition [%] |
| --- | --- |
| O=S(=O)(c1cccc2cnccc12)N1CCCNCC1 | 18 |

target: MAPK14 (human) (UniProt Q16539); assay: Enzyme Assay; details: not given
Sequence (Q16539 whole entry, looked up): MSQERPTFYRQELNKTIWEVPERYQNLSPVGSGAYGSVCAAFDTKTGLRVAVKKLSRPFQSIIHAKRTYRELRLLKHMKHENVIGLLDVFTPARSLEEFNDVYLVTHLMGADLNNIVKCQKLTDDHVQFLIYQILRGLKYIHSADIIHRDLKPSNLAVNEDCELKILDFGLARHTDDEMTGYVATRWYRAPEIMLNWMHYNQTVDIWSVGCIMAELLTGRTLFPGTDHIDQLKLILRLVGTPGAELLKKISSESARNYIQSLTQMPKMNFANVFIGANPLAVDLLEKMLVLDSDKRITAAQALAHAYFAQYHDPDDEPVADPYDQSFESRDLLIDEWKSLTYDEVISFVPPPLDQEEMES

| Structure (SMILES) | IC50 [nM] |
| --- | --- |
| Cc1cc(NC(=O)c2cccc(-n3cc(NC(=O)Nc4ccccc4Cl)cn3)c2)ccn1 | > 10000 |

target: MAPK14 (human) (UniProt Q16539); assay: Assessment of MAPK14 Kinase Activity; details: not given

| Structure (SMILES) | IC50 [nM] | Kd [nM] | Ki [nM] |
| --- | --- | --- | --- |
| CC(C)Nc1ncc2cc(Oc3ccc(F)cc3F)ncc2n1 | < 500 |  |  |
| CS(=O)(=O)N1CCC(Nc2ncc3cc(Oc4ccc(F)cc4F)ncc3n2)CC1 | < 50 |  |  |
| OC1CCN(c2[nH]nc(-c3ccc(Cl)cc3)c2-c2ccncc2)CC1 | 110 |  |  |
| O=C(c1sc2c(ccc(=O)n2-c2c(F)cccc2F)c1Nc1cccc(CO)n1)N1CC[C@@H](O)C1 | 5 to 500 |  |  |
| Cc1nc(Nc2c(C(=O)N3CCC[C@@H]3CO)sc3c2ccc(=O)n3-c2c(F)cccc2F)ccc1F | 5 to 500 |  |  |
| CCCCC=Cc1cccc(C(=O)Nc2ccc(OCCN3CCOCC3)c3ccccc23)c1 | > 10000 |  |  |
| Cc1cccc(Nc2c(C(=O)N3CCNCC3)sc3c2ccc(=O)n3-c2c(F)cccc2F)n1 | 5 to 500 |  |  |
| CONC(=O)c1ccc(C)c(Nc2noc(-c3ccccc3)n2)c1 | < 50 |  |  |
| CC[C@@H](NC(=O)c1cn2ncnc(Nc3cc(NC(=O)c4cc(F)cc(N5CCOCC5)c4)ccc3C)c2c1C)OC | 2 |  |  |
| CC1CCN(c2[nH]nc(-c3ccc(Cl)cc3)c2-c2ccncc2)CC1 | 130 |  |  |
| O=C1Nc2nc(Nc3ccc(O)cc3)ncc2CN1c1ccccc1Cl |  | 32 |  |
| Clc1ccc(-c2n[nH]c(N3CCC4CCCCC4C3)c2-c2ccncc2)cc1 (stereo not drawn) | 260 |  |  |
| CNc1nccc(-c2cccnc2Oc2ccc(Nc3nnc(-c4ccc(F)cc4)c4ccccc34)cc2)n1 | 1700 |  |  |
| CN(C)C(=O)[C@@H]1CCCN1c1nccc(Oc2ccc(NC(=O)c3cc(F)cc(N4CCCCC4)c3)c3ccccc23)n1 | 126 |  |  |
| CSc1nc(-c2ccc(F)cc2)c(-c2ccnc(N(C)Cc3ccccc3)c2)[nH]1 | 870 |  |  |
| c1ccc(-c2noc(CN3CCCCC3)c2-c2ccnc(NC3CCCCC3)n2)cc1 |  |  | 2 |
| CSc1nc(-c2ccc(F)cc2)c(-c2ccnc(NC3CCc4ccccc43)c2)[nH]1 (stereo not drawn) | 30 |  |  |
| CC(Oc1nncc2cc(Nc3ccc(F)cc3F)ccc12)C(F)(F)F (stereo not drawn) | 3.1 |  |  |
| Clc1ccc(-c2n[nH]c(N3CCCC4CCCCC43)c2-c2ccncc2)cc1 (stereo not drawn) | 40 |  |  |
| Cc1cccc(Nc2c(C(=O)N3CC[C@@H](O)C3)sc3c2ccc(=O)n3-c2c(F)cccc2F)n1 | 5 to 500 |  |  |
| Cc1nc(-c2ccccc2)c(-c2ccncc2)o1 | 5160 |  |  |
| COCCN1C(=O)N(c2ccccc2Cl)Cc2cnc(NC(C)C)nc21 | < 10000 |  |  |
| CC(C)(N)C(=O)OCCOc1cc(-c2ccccc2Cl)c2ccc(=O)n(-c3c(Cl)cccc3Cl)c2c1 | 0.12 |  |  |
| Cc1c(NC(=O)Nc2nnc(C3CCCO3)s2)sc(CN2CCOCC2)c1Cl (stereo not drawn) | < 5000 |  |  |
| Cc1cccc(-c2nc(Nc3cc(C(=O)NC4CC4)ccc3C)sc2C(=O)NCc2ccccc2)c1 | 50 to 100 |  |  |
| CSc1nc(-c2ccc(F)cc2)c(-c2ccnc(N(C)C)c2)[nH]1 | 210 |  |  |
| Cc1c(NC(=O)Nc2cc(C(C)(C)C)nn2-c2ccc(F)cc2F)sc(CN2CCOCC2)c1Cl | < 5000 |  |  |
| CCc1nc(-c2ccc(OC)cc2)[nH]c1-c1ccncc1 | 8200 |  |  |

same assay, conditions: concentration not given here

| Structure (SMILES) | inhibition [%] |
| --- | --- |
| O=S(=O)(c1cccc2cnccc12)N1CCCNCC1 | -8 |
| C[C@@H](N)[C@H]1CC[C@H](C(=O)Nc2ccncc2)CC1 | -3 |

target: MAPK14 (human) (UniProt Q16539); assay: Inhibition of MAPK14 Kinase Activity; details: not given

| Structure (SMILES) | IC50 [nM] |
| --- | --- |
| CCNC(=O)Nc1ccc2ncc(Nc3ccc(Cl)cc3)nc2n1 | > 100000 |
| CCNC(=O)Nc1ccc2ncc(-c3ccc(O)c(OC)c3)nc2n1 | > 100000 |
| CCNC(=O)Nc1ccc2ncc(-c3cc(Cl)c(O)c(OC)c3)nc2n1 | > 100000 |
| CC(C)Nc1ncc2cc(Oc3ccc(F)cc3F)ncc2n1 | < 500 |
| CS(=O)(=O)N1CCC(Nc2ncc3cc(Oc4ccc(F)cc4F)ncc3n2)CC1 | < 50 |
| CCNC(=O)Nc1ccc2ncc(-c3cc(Cl)c(O)c(Cl)c3)nc2n1 | > 100000 |

target: PIK3CA (human) (UniProt P42336); assay: Inhibition of PIK3CA Kinase Activity; details: not given
Sequence (P42336 whole entry, looked up): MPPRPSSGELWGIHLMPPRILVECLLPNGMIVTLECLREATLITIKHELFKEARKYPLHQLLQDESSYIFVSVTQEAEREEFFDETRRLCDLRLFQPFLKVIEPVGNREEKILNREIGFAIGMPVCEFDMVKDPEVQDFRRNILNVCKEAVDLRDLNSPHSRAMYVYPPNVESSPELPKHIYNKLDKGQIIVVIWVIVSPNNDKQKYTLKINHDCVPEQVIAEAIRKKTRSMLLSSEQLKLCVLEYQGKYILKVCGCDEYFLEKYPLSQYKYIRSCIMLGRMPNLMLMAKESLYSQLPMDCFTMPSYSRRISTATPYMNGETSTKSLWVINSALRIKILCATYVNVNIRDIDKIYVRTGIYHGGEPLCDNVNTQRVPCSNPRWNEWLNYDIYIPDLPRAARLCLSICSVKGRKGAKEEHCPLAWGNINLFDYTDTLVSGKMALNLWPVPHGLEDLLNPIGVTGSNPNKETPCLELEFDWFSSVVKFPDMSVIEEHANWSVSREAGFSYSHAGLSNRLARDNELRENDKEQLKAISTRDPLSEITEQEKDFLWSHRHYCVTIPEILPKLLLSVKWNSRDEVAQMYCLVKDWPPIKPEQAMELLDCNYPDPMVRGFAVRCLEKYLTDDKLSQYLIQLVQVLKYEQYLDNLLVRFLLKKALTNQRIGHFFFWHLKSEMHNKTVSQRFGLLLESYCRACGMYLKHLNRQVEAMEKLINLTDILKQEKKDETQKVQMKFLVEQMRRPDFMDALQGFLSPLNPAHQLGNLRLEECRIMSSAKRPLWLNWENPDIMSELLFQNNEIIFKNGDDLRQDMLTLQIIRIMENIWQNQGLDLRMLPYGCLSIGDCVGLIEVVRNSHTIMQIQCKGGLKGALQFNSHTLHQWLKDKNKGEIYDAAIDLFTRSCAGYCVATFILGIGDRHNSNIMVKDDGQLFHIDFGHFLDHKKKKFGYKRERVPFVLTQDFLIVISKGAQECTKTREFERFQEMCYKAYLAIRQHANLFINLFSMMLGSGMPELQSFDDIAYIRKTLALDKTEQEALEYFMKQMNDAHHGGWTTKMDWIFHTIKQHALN

| Structure (SMILES) | IC50 |
| --- | --- |
| COC[C@H]1OC(=O)c2coc3c2[C@@]1(C)C1=C(C3=O)[C@@H]2CC[C@H](C(=O)OCN(C)c3ccc([N+](=O)[O-])c4nonc34)[C@@]2(C)C[C@H]1OC(C)=O | 225 nM |
| Oc1cccc(-c2nc(N3CCOCC3)c3sccc3n2)c1 | 2 nM |
| CN(C)CC=CC(=O)Nc1cccc(-c2cccc(Oc3cc(=O)[nH]c4ccccc34)c2)c1 | 12000 nM |
| CCNC(=O)Nc1ccc2ncc(Nc3ccc(Cl)cc3)nc2n1 | 147 nM |
| N[C@H]1CCC[C@@H](CC(=O)Nc2cccc(-c3nc(-c4cccc(CO)c4)cc(N4CCOCC4)n3)c2)C1 | 700 nM |
| COc1ncc2cc1NS(=O)(=O)c1ccc(Cl)c(c1)C(=O)NCC1=CC=C(S1)c1ncnc3c1SC2=C3C | 0.1 nM |
| COC[C@H]1OC(=O)c2coc3c2[C@@]1(C)C1=C(C3=O)[C@@H]2CCC(=O)[C@@]2(C)C[C@H]1C(=O)OCc1cc(=O)oc2cc(N(C)C)ccc12 | 10.1 nM |
| CN[C@H](C)c1ccc(S(=O)(=O)Nc2cc(-c3ccc4nc(NC(C)=O)cn4n3)cnc2Cl)cc1 | 6 nM |
| COC[C@H]1OC(=O)c2coc3c2[C@@]1(C)C1=C(C3=O)[C@@H]2CC[C@H](C(=O)OCc3cc(=O)oc4cc(N(C)C)ccc34)[C@@]2(C)C[C@H]1OC(C)=O | 695 nM |
| COc1ncc2cc1NS(=O)(=O)c1cccc(c1)C(=O)NCc1cncc(c1)-c1ccnc3[nH]c-2cc13 | 100 to 1000 nM |
| C=CCN(/C=C1/C(=O)O[C@H](COC)[C@@]2(C)C1=C(O)C(=O)C1=C2[C@H](OC(C)=O)C[C@]2(C)C(=O)CCC12)CC=C (stereo partly drawn) | 0.5 nM |
| CCNC(=O)Nc1ccc2ncc(-c3ccc(O)c(OC)c3)nc2n1 | 2800 nM and 2200 nM |
| NC(=O)C1CCN(c2cccc(-c3nc(-c4cccc(O)c4)cc(N4CCOCC4)n3)c2)CC1 | 1000 nM |
| CC(C)(C)CNc1ncccc1CNc1cccc(Oc2cc(=O)[nH]c3ccccc23)c1 | 10000 nM |
| COc1ccc(-c2c[nH]c3ncc(-c4cncc(NS(=O)(=O)c5ccc(F)cc5F)c4)cc23)cc1OC | 3 nM |
| CC(=O)N1CCC(n2ncc3c(N4CCOCC4)nc(-c4cccc(O)c4)nc32)CC1 | 69 nM |
| CN1CCC(Nc2cccc(-c3cccc(Oc4cc(=O)[nH]c5ccccc45)c3)c2)CC1 | 8310 nM |
| COc1ncc2cc1NS(=O)(=O)c1ccc(F)c(c1)C(=O)NCc1cncc(c1)-c1ccnc3c1SC2=C3 | 15 nM |
| CC(C)(C)OC(=O)n1ccc2cc(CNc3cccc(Oc4cc(=O)[nH]c5ccccc45)c3)ccc21 | 11800 nM |
| CNC(=O)Nc1ccc(-c2nc(N3CC4CCC(C3)O4)c3cnn([C@H]4CC[C@H](OC)CC4)c3n2)cc1 | 1170 nM |
| O=C(Nc1ccc(C(=O)NCCN2CCCC2)cc1)Nc1ccc(-c2nc(O[C@H]3CCOC3)nc(N3CCOCC3)n2)cc1 | 1.4 nM |
| COc1ncc2cc1NS(=O)(=O)c1cccc(c1)C(=O)NCCN1CC=C(CC1)c1cnn3ccc-2nc13 | 20 nM |
| COC[C@H]1OC(=O)c2coc3c2[C@@]1(C)C1=C(C3=O)[C@@H]2CCC(=O)[C@@]2(C)C[C@H]1C(=O)OCN(C)c1ccc([N+](=O)[O-])c2nonc12 | 0.7 nM |
| c1cc(-c2nc(N3CCOCC3)c3sccc3n2)c2cn[nH]c2c1 | 40 nM |
| COc1ncc(-c2nn3c(-c4ccnnc4)cnc3s2)cc1NS(=O)(=O)c1ccc(F)cc1F | < 100 nM |
| CCNC(=O)Nc1ccc2ncc(-c3cc(Cl)c(O)c(OC)c3)nc2n1 | 458 nM |
| CNC(=O)Nc1ccc(-c2nc(N3CC4CCC(C3)O4)c3cnn([C@H]4CC[C@@H](O)CC4)c3n2)cc1 | 227 nM |
| CN[C@@H](C)c1ccc(S(=O)(=O)Nc2cc(-c3ccc4nc(NC(C)=O)cn4n3)cnc2Cl)cc1 | 8 nM |

| Structure (SMILES) | IC50 |
| --- | --- |
| CC(=O)c1c[nH]c2ncc(-c3cnc(N)c(S(=O)(=O)N4CCOCC4)c3)cc12 | 730 nM |
| COc1ccc2c(c1)c(C=C1Oc3cc(O)cc(O)c3C1=O)c(C)n2CCCN(C)C | 5 nM |
| COc1ccc2c(c1)c(C=C1Oc3cc(O)cc(O)c3C1=O)c(C)n2CCCN1CCN(CCO)CC1 | 7 nM |
| O=c1cc(Oc2cccc(NCc3cnccc3N3CCOCC3)c2)c2ccccc2[nH]1 | 5620 nM |
| C(#Cc1n[nH]c2ncccc12)c1ccccn1 | 9000 nM |
| N#Cc1cccc(-c2c[nH]c3ncc(-c4cnc(N)c(S(=O)(=O)N5CCOCC5)c4)cc23)c1 | 130 nM |
| O=C1C(=Cc2c[nH]c3ccc(Br)cc23)Oc2cc(O)cc(O)c21 | 422 nM |
| NCc1cccc(C(=O)Nc2cccc(-c3nc(-c4cccc(CO)c4)cc(N4CCOCC4)n3)c2)c1 | 1000 nM |
| CN(COC(=O)[C@@H]1CC(=O)c2coc3c2[C@@]1(C)c1ccc2c(c1C3=O)CCC2=O)c1ccc([N+](=O)[O-])c2nonc12 | 9.6 nM |
| CN(C)c1ccc2c(COC(=O)[C@@H]3CC(=O)c4coc5c4[C@@]3(C)c3ccc4c(c3C5=O)CCC4=O)cc(=O)oc2c1 | 1.9 nM |
| C[C@]12C(=C(O)C(=O)c3c1ccc1c3CCC1=O)/C(=C/NCC(=O)O)C(=O)C[C@H]2OC(=O)CCC(=O)O | 44 nM |
| O=C1NCc2cncc(c2)-c2ncnc3c2SC(=C3)c2cncc(c2)NS(=O)(=O)c2cccc1c2 | 44 nM |
| COc1ccccc1C1C2=C(CC(C)(C)CC2=O)Nc2c1c(C(C)(C)C)nn2-c1ccc(Cl)c(Cl)c1 (stereo not drawn) | 7000 nM |
| c1ccc(CN2CCC(n3ncc4c(N5CCOCC5)nc(-c5cc6ccccc6[nH]5)nc43)CC2)cc1 | 1110 nM |
| CC1(C)CC(=O)C2=C(C1)Nc1c(c(C3CCCCC3)nn1-c1cccc(F)c1)C2c1ccc(C(F)(F)F)cc1 (stereo not drawn) | 8000 nM |
| CS(=O)(=O)Nc1cccc(-c2nn3c(-c4cnc(N)c(C(F)(F)F)c4)cnc3s2)c1 | 28 nM |
| COc1ncc2cc1NS(=O)(=O)c1cccc(c1)C(=O)NCC(=O)NCc1cncc(c1)-c1cnc3sc-2nn13 | 100 to 1000 nM |
| CNC(=O)Nc1ccc(-c2nc(N3CC4CCC(C3)O4)c3cnn([C@H]4CC[C@@H](OC)CC4)c3n2)cc1 | 705 nM |
| Cc1ccc([N+](=O)[O-])cc1S(=O)(=O)n1ccc(-c2c(C)nc3ccc(Br)cn23)n1 | 3 nM |
| CN(C)CCCN1CCN(c2cccc(Oc3cc(=O)[nH]c4ccccc34)c2)CC1 | 10000 nM |
| O=c1cc(Oc2cccc(NCc3ccc4[nH]ccc4c3)c2)c2ccccc2[nH]1 | 3420 nM |
| CCNC(=O)Nc1ccc2ncc(-c3cc(Cl)c(O)c(Cl)c3)nc2n1 | 3800 nM |
| Nc1ncc(-c2ccc3nccc(-c4ccncc4)c3c2)cc1S(=O)(=O)Nc1ccc(F)cc1F | 1.2 nM |
| CC(C)(C)OC(=O)Nc1ccc(CNc2cccc(Oc3cc(=O)[nH]c4ccccc34)c2)cn1 | 10000 nM |
| O=C1Nc2ccccc2C(=C1)Oc3cccc(NCC4=CN(=CC=C4)[BH2-]C#N)c3 | 7380 nM |
| CNC(=O)Nc1ccc(-c2nc(N3CC4CCC(C3)O4)c3cnn([C@H]4CC[C@H](O)CC4)c3n2)cc1 | 882 nM |
| COc1ccc(-c2c[nH]c3ncc(-c4cncc(NS(=O)(=O)c5ccccc5)c4)cc23)cc1OC | 1600 nM |
